US12649712B2, “Indene compounds, pharmaceutical compositions thereof, and their therapeutic applications” (NucMito Pharmaceuticals Co. Ltd., priority 2020, dated 2026)

Experiments:
[1] = test system: alpha-smooth muscle actin (α-SMA); assay: Inhibition of TGF-β induced expression of alpha-smooth muscle actin (α-SMA) in CFSC cells, western blot; type: cell-based; settings: compound at 10 μM, TGF-β (10 ng/mL), 24 hours, decrease in band intensity vs TGF-β only
Outline: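 Cells at 60–70% confluence in serum-free DMEM received compound at 10 μM plus TGF-β (10 ng/mL) for 24 h at 37 °C. NP-40 lysates were run on western blot for α-SMA and β-actin, with ECL bands quantified. % inhibition = decrease in band intensity versus TGF-β alone.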

[2] = test system: CCl4-induced liver fibrosis in C57BL/6 mice; assay: Antifibrotic activity in CCl4-induced liver fibrosis, Sirius red staining of liver samples; type: in vivo; settings: C57/BL6 mice, oral once daily for 2 weeks; malotilate 60 mg/kg, A11 and B9 50 mg/kg
Experimental: CCl4-induced liver fibrosis was described previously. Henderson et al., Proc. Nat'l. Acad. Sci. U.S.A. 2006, 103, 5060-5; Henderson et al., Nat. Med. 2013, 19, 1617-24. Briefly, eight-week-old C57BL/6 mice were randomly divided into two groups: a control group and a CCl4 administered group. Liver fibrosis was induced by intraperitoneal administration of 25% CCl4 at 0.5 mL/kg body weight (diluted in corn oil) twice weekly for 6 weeks. Dosing was started during the last 2 weeks of CCl4 administration. Malotilate (Mal) as a reference and compounds A11, A23, and B9 were each freshly prepared by dissolving in PEG 400 and orally administered in a dosing volume of 10 mL/kg. The mice were stratified (n=6-8 per group) based on their body weights and dosed once daily for 2 weeks with a vehicle, malotilate (60 mg/kg), compound A11 (50 mg/kg), compound A23 (50 mg/kg), or compound B9 (50 mg/kg). Their body weights were monitored daily during the intervention period. At the terminal of treatment, the mice were sacrificed and their liver samples were processed as below.
The mice liver samples were all taken at the same position of each large lobe, and then post-fixed in a 10% buffered formaldehyde for 48 h. The fixed livers were embedded in paraffin for microtome slicing into 5-μm-thick sections. The tissue sections were mounted onto MS-coated glass slides, deparaffinized, and stained with picric acid-Sirius red. Stained sections were photographed using a microscope with a digital camera. Images were taken at a full resolution with a single image dimension set at 1,360×1,024 pixels.
Total RNA was extracted from the liver using an MOLPURE® TRIEASY™ Plus Total RNA Kit (Yeasen, Shanghai, China). Total RNA (5 μg) was reverse-transcribed using 1st strand cDNA Synthesis SuperMix for qPCR (gDNA digester plus) Kit (Yeasen, Shanghai, China). […]

## CC1=C(CC(=O)O)c2cc(F)ccc2/C1=C\c1ccc(Oc2ccc(F)cc2)cc1 [Compound A11, 2-[(1Z)-5-Fluoro-1-{[4-(4-fluorophenoxy)phenyl]methylidene}-2-methyl-1H-inden-3-yl]acetic acid]
[1]
  inhibition at 10 µM: 80 to 90%
[2]
  Sirius red pathological staining of liver samples: effect on fibrosis induced by CCl4: reversed the fibrosis induced by CCl4

## CC1=C(CC(=O)O)c2cc(F)ccc2/C1=C\c1ccc(C(C)C)cc1 [Compound B9, (Z)-2-(5-fluoro-2-methyl-1-(4-isopropylbenzylidene)-1H-inden-3-yl)acetic acid]
[1]
  inhibition at 10 µM: > 90%
[2]
  Sirius red pathological staining of liver samples: effect on fibrosis induced by CCl4: reversed the fibrosis induced by CCl4

## CC1=C(CC(=O)O)c2cc(F)cc(F)c2/C1=C/c1ccc(Oc2ccc(F)cc2)cc1 [Compound E4, 2-[(1E)-5,7-Difluoro-2-methyl-1-({4-[4-fluorophenoxy]phenyl}methylidene)-1H-inden-3-yl]acetic acid]
[1]
  inhibition at 10 µM: > 90%

## CC1=C(CC(=O)O)c2cc(F)cc(F)c2/C1=C/c1cccc(Oc2ccccc2)c1 [Compound E6, 2-[(1E)-5,7-Difluoro-1-(3-(phenoxy)benzylidene)-2-methyl-1H-inden-3-yl]-acetic acid]
[1]
  inhibition at 10 µM: > 90%

## CC(C)OC(=O)C(C(=O)OC(C)C)=C1SC=CS1 [Mal, malotilate, reference compound]
[2]
  Sirius red pathological staining of liver samples: effect on fibrosis induced by CCl4: reversed the fibrosis induced by CCl4
